We go through 30 compounds from patent EP4818157A1, “N-SUBSTITUTED CYCLIC AMIDE COMPOUND” (Kissei Pharmaceutical Co., Ltd., priority 2023, dated 2025).

T1 sequence (P16473 21-764): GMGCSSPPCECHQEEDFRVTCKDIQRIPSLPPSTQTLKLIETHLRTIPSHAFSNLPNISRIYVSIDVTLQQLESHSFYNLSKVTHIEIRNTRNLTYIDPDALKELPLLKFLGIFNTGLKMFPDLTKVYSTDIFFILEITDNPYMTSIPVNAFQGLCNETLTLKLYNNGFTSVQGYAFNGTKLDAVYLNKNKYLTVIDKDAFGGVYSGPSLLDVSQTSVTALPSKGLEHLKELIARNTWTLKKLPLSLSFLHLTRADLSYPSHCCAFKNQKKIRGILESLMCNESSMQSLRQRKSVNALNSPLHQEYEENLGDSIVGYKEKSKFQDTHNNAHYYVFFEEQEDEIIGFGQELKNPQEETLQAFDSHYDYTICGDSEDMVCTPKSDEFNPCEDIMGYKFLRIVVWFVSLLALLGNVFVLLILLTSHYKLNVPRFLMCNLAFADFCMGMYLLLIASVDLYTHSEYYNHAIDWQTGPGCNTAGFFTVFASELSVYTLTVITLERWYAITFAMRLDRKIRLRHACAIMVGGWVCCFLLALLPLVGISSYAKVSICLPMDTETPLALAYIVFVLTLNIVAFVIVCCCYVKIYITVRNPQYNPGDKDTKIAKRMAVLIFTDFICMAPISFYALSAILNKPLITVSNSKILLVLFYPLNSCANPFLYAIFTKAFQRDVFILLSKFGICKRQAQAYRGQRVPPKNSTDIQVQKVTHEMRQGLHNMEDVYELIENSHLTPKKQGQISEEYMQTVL

The experiment has as its target T1, human TSHR (Homo sapiens, UniProt P16473).
T1 construct: expressed in transfected cells
Kind of experiment: Measurement of antagonist activity using TSH-induced cAMP production in human TSHR-stably expressing CHO cells. The experiment is classed as cell-based. As to conditions: human TSH final concentration 50 ng/mL. On the procedure: Measurement of Antagonist Activity Using TSH-induced cAMP Production in Human TSHR-stably Expressing CHO Cells as an Indicator
A gene sequence of human TSHR (reference number NM_000369.2) was inserted into a multiple cloning site of pcDNA3.1(+). The prepared plasmid vector was introduced into CHO cells by a lipofection method to establish human TSHR stably expressing CHO cells. The obtained cells were seeded in a poly-D-lysine-coated 96-well plate at 5 x 10^4 cells/well, and cultured for 1 day in F12 medium containing 10% FBS, 400 µg/mL G418, 50 U/mL penicillin, and 50 µg/mL streptomycin under conditions of 37°C and 5% CO2. After removing a medium, the cells were washed twice with 100 µL per well of an assay buffer (Hanks' Balanced Salt Solution containing 20 mM HEPES and 1 mM IBMX). 30 µL of an assay buffer containing a test compound was added to a well, and the mixture was incubated at room temperature for 15 minutes. Next, 30 µL of an assay buffer containing human TSH (R&D Systems, Inc., final concentration 50 ng/mL) was added, and the mixture was incubated at 37°C for 1 hour. The supernatant was removed, and Lysis and Detection Buffer 2 (Cisbio) was added to prepare a cell lysate by incubating at room temperature for 1 hour. According to the instructions for use of a cAMP Gs HiRange kit (Cisbio), a cell lysate was reacted with d2-labeled cAMP and an anti-cAMP Europium Cryptate labeled antibody (Cisbio) in a 384-well white microplate. Next, a fluorescence intensity ratio (measurement wavelengths 665 nm/620 nm) was measured using a multiplate reader (PHERAstar FSX, BMG LABTECH Japan). A fluorescence intensity ratio of each sample was converted into a cAMP content using a standard curve. A cAMP content was converted into a percentage of a control value, and a cAMP production rate was calculated. Using Prism (Graph Pad Software Inc.), a cAMP production rate was plotted against a test compound concentration, and an IC50 value was calculated. The IC50 of each test compound is shown in the above tables. In the tables, IC50 < 3.0 µM was denoted as A, and 3.0 µM ≤ IC50 < 30 µM was denoted as B. The case where activity was observed but an IC50 value could not be calculated was denoted as C.
On the technique in general: Cyclic AMP is a second messenger, typically raised through Gs and lowered through Gi signalling.
`NC(=O)N[C@@H]1Cc2ccc(C(F)(F)F)cc2N(Cc2cc(C(F)F)ccc2F)C1=O` [Example C-15, (R)-1-(1-(5-(difluoromethyl)-2-fluorobenzyl)-2-oxo-7-(trifluoromethyl)-1,2,3,4-tetrahydroquinolin-3-yl)urea]: the IC50 (as a rule, the concentration needed to halve the response being measured) was below 3 µM.
The compound `NC(=O)N[C@@H]1Cc2ccc(CO)cc2N(Cc2cc(C(F)F)ccc2F)C1=O` [Example C-16, (R)-1-(1-(5-(difluoromethyl)-2-fluorobenzyl)-7-(hydroxymethyl)-2-oxo-1,2,3,4-tetrahydroquinolin-3-yl)urea] registered a half-maximal inhibitory concentration (IC50) below 3 µM.
In the case of `NC(=O)N[C@@H]1Cc2c(F)cc(F)cc2N(Cc2cc(C(F)F)ccc2F)C1=O` [Example C-17, (R)-1-(1-(5-(difluoromethyl)-2-fluorobenzyl)-5,7-difluoro-2-oxo-1,2,3,4-tetrahydroquinolin-3-yl)urea], the half-inhibitory concentration (IC50) is below 3 µM.
As for `NC(=O)N[C@@H]1Cc2ccc(C(F)F)cc2N(Cc2cc(OC(F)(F)F)ccc2F)C1=O` [Example C-18, (R)-1-(7-(difluoromethyl)-1-(2-fluoro-5-(trifluoromethoxy)benzyl)-2-oxo-1,2,3,4-tetrahydroquinolin-3-yl)urea], the IC50 was below 3 µM.
With `NC(=O)N[C@@H]1Cc2ccc(C(F)F)cc2N(Cc2cc(S(F)(F)(F)(F)F)ccc2F)C1=O` [Example C-19, (R)-1-(7-(difluoromethyl)-1-(2-fluoro-5-(pentafluorosulfanyl)benzyl)-2-oxo-1,2,3,4-tetrahydroquinolin-3-yl)urea] the figure was below 3 µM; with `NC(=O)N[C@@H]1Cc2ccc(C(F)F)cc2N(Cc2cc(C(O)(C(F)(F)F)C(F)(F)F)ccc2F)C1=O` [Example C-20, (R)-1-(7-(difluoromethyl)-1-(2-fluoro-5-(1,1,1,3,3,3-hexafluoro-2-hydroxypropan-2-yl)benzyl)-2-oxo-1,2,3,4-tetrahydroquinolin-3-yl)urea], below 3 µM.
The result for `NC(=O)N[C@@H]1Cc2ccc(F)cc2N(Cc2cc(C(F)(F)F)cc(Cl)c2F)C1=O` [Example C-21, (R)-1-(1-(3-chloro-2-fluoro-5-(trifluoromethyl)benzyl)-7-fluoro-2-oxo-1,2,3,4-tetrahydroquinolin-3-yl)urea] reads below 3 µM; that for `NC(=O)N[C@@H]1Cc2cscc2N(Cc2cccc(C(F)(F)F)c2)C1=O` [Example C-22, (R)-1-(2-oxo-1-(3-(trifluoromethyl)benzyl)-1,2,3,4-tetrahydrothieno[3,4-b]pyridin-3-yl)urea], below 3 µM; that for `NC(=O)N[C@@H]1Cc2ccncc2N(Cc2cccc(C(F)(F)F)c2)C1=O` [Example C-23, (R)-1-(2-oxo-1-(3-(trifluoromethyl)benzyl)-1,2,3,4-tetrahydro-1,7-naphthyridin-3-yl)urea], 3 to 30 µM.
The result for `CC(c1cc(C(F)(F)F)ccc1F)N1C(=O)[C@H](NC(N)=O)Cc2ccc(F)cc21` (stereo partly drawn) [Example C-24, 1-((3R)-7-fluoro-1-(1-(2-fluoro-5-(trifluoromethyl)phenyl)ethyl)-2-oxo-1,2,3,4-tetrahydroquinolin-3-yl)urea] reads 3 to 30 µM; that for `NC(=O)N[C@@H]1Cc2ccccc2N(CCc2ccccc2)C1=O` [Example C-25, (R)-1-(2-oxo-1-phenethyl-1,2,3,4-tetrahydroquinolin-3-yl)urea], 3 to 30 µM; that for `NC(=O)N[C@@H]1Cc2ccccc2N(CCCc2ccccc2)C1=O` [Example C-26, (R)-1-(2-oxo-1-(3-phenylpropyl)-1,2,3,4-tetrahydroquinolin-3-yl)urea], above 30 µM.
`NC(=O)N[C@@H]1Cc2ccccc2N(CC2CCCCC2)C1=O` [Example C-27, (R)-1-(1-(cyclohexylmethyl)-2-oxo-1,2,3,4-tetrahydroquinolin-3-yl)urea]: the IC50 was above 30 µM.
With `CNC(=O)N[C@@H]1Cc2ccc(C(F)(F)F)cc2N(Cc2cc(C(F)F)ccc2F)C1=O` [Example C-28, (R)-1-(1-(5-(difluoromethyl)-2-fluorobenzyl)-2-oxo-7-(trifluoromethyl)-1,2,3,4-tetrahydroquinolin-3-yl)-3-methylurea] the figure was below 3 µM; with `NC(=O)N[C@@H]1Cc2ccc(C(=O)O)cc2N(Cc2cc(C(F)(F)F)ccc2F)C1=O` [Example C-29, (R)-1-(2-fluoro-5-(trifluoromethyl)benzyl)-2-oxo-3-ureido-1,2,3,4-tetrahydroquinolin-7-carboxylic acid], above 30 µM.
The result for `NC(=O)N[C@@H]1Cc2ccc(C(N)=O)cc2N(Cc2cc(C(F)(F)F)ccc2F)C1=O` [Example C-30, (R)-1-(2-fluoro-5-(trifluoromethyl)benzyl)-2-oxo-3-ureido-1,2,3,4-tetrahydroquinolin-7-carboxamide] reads 3 to 30 µM; that for `C=CCc1ccc(F)c(CN2C(=O)[C@H](NC(N)=O)CC[C@H]2C(F)(F)F)c1` [Example D-1, 1-((3R,6S)-1-(5-allyl-2-fluorobenzyl)-2-oxo-6-(trifluoromethyl)piperidin-3-yl)urea], below 3 µM.
The result for `NC(=O)N[C@@H]1CC[C@@H](C(F)(F)F)N(Cc2cc(CCC3CC3)ccc2F)C1=O` [Example D-2, 1-((3R,6S)-1-(5-(2-cyclopropylethyl)-2-fluorobenzyl)-2-oxo-6-(trifluoromethyl)piperidin-3-yl)urea] reads below 3 µM; that for `NC(=O)N[C@@H]1CC[C@@H]2CC[C@@H](Cc3ccccc3C(F)(F)F)N2C1=O` [Example D-3, 1-((3S,6R,8aR)-5-oxo-3-(2-(trifluoromethyl)benzyl)octahydroindolizin-6-yl)urea], 3 to 30 µM.
Regarding `NC(=O)N[C@@H]1CC[C@@H](CO)N(Cc2cc(C(F)(F)F)ccc2F)C1=O` [Example D-4, 1-((3R,6S)-1-(2-fluoro-5-(trifluoromethyl)benzyl)-6-(hydroxymethyl)-2-oxopiperidin-3-yl)urea], the IC50 lay in the range of 3 to 30 µM.
With `NC(=O)N[C@@H]1CC[C@@H](CN2CCCC2)N(Cc2cc(C(F)(F)F)ccc2F)C1=O` [Example D-5, 1-((3R,6S)-1-(2-fluoro-5-(trifluoromethyl)benzyl)-2-oxo-6-(pyrrolidin-1-ylmethyl)piperidin-3-yl)urea] the figure was above 30 µM; with `COC[C@@H]1CC[C@@H](NC(N)=O)C(=O)N1Cc1cc(C(F)(F)F)ccc1F` [Example D-6, 1-((3R,6S)-1-(2-fluoro-5-(trifluoromethyl)benzyl)-6-(methoxymethyl)-2-oxopiperidin-3-yl)urea], below 3 µM.
With `CCOC[C@@H]1CC[C@@H](NC(N)=O)C(=O)N1Cc1cc(C(F)(F)F)ccc1F` [Example D-7, 1-((3R,6S)-6-(ethoxymethyl)-1-(2-fluoro-5-(trifluoromethyl)benzyl)-2-oxopiperidin-3-yl)urea] the figure was below 3 µM; with `CC(=O)NC[C@@H]1CC[C@@H](NC(N)=O)C(=O)N1Cc1cc(C(F)(F)F)ccc1F` [Example D-8, N-(((2S,5R)-1-(2-fluoro-5-(trifluoromethyl)benzyl)-6-oxo-5-ureidopiperidin-2-yl)methyl)acetamide], above 30 µM.
The result for `CN(C)C[C@@H]1CC[C@@H](NC(N)=O)C(=O)N1Cc1cc(C(F)(F)F)ccc1F` [Example D-9, 1-((3R,6S)-6-((dimethylamino)methyl)-1-(2-fluoro-5-(trifluoromethyl)benzyl)-2-oxopiperidin-3-yl)urea] reads above 30 µM; that for `NC(=O)Nc1ccc(CO)n(Cc2cc(C(F)(F)F)cc(Cl)c2F)c1=O` [Example E-1, 1-(1-(3-chloro-2-fluoro-5-(trifluoromethyl)benzyl)-6-(hydroxymethyl)-2-oxo-1,2-dihydropyridin-3-yl)urea], below 3 µM; that for `COCc1ccc(NC(N)=O)c(=O)n1Cc1cc(C(F)(F)F)cc(Cl)c1F` [Example E-2, 1-(1-(3-chloro-2-fluoro-5-(trifluoromethyl)benzyl)-6-(methoxymethyl)-2-oxo-1,2-dihydropyridin-3-yl)urea], below 3 µM.
Compound `CN(C)Cc1ccc(NC(N)=O)c(=O)n1Cc1cc(C(F)(F)F)cc(Cl)c1F` [Example E-3, 1-(1-(3-chloro-2-fluoro-5-(trifluoromethyl)benzyl)-6-((dimethylamino)methyl)-2-oxo-1,2-dihydropyridin-3-yl)urea] had a half-inhibitory concentration (IC50) below 3 µM.
`NC(=O)Nc1ccc(CN2CCCC2)n(Cc2cc(C(F)(F)F)cc(Cl)c2F)c1=O` [Example E-4, 1-(1-(3-chloro-2-fluoro-5-(trifluoromethyl)benzyl)-2-oxo-6-(pyrrolidin-1-ylmethyl)-1,2-dihydropyridin-3-yl)urea] gave an IC50 below 3 µM.
The result for `C=CCc1ccc(NC(N)=O)c(=O)n1Cc1cc(C(F)(F)F)cc(Cl)c1F` [Example E-5, 1-(6-allyl-1-(3-chloro-2-fluoro-5-(trifluoromethyl)benzyl)-2-oxo-1,2-dihydropyridin-3-yl)urea] reads below 3 µM.
